Patent US6737383B1, “Herbicidal oxadiazolidines” (priority 1999, dated 2004)

What was measured:
cocklebur = assay: Test B pre/postemergence cocklebur; type: in vivo, Xanthium strumarium
Outline: (§1)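 Test chemicals in a non-phytotoxic solvent mixture with surfactant were sprayed preemergence onto planted seeds and postemergence onto plants 2 to 18 cm tall (1- to 4-leaf stage). After twelve to sixteen days in a greenhouse, injury was visually rated against untreated controls from 0 (no effect) to 10 (complete control).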

morningglory = assay: Test B pre/postemergence morningglory; type: in vivo, Ipomoea hederacea
Outline: as §1

pigweed = assay: Test B pre/postemergence pigweed; type: in vivo, Amaranthus retroflexus
Outline: as §1

soybean = assay: Test B pre/postemergence soybean; type: in vivo, Glycine max
Outline: as §1

[1] = Postemergence, Rate 62 g/ha, scale 0 to 10, 0 is no effect, 10 is complete control
[2] = Postemergence, Rate 250 g/ha, scale 0 to 10, 0 no effect, 10 complete control
[3] = Preemergence, Rate 62 g/ha, scale 0 to 10 (0 no effect, 10 complete control)
[4] = Preemergence, Rate 125 g/ha, scale 0 to 10 (0 no effect, 10 complete control)
[5] = Preemergence, Rate 250 g/ha, scale of 0 to 10 where 0 is no effect and 10 is complete control
[6] = Preemergence, Rate 500 g/ha, scale 0 (no effect) to 10 (complete control)
[7] = Rate 125 g/ha, Postemergence, scale 0 to 10, 0 no effect, 10 complete control
[8] = Rate 500 g/ha, Postemergence, scale 0 to 10, 0 no effect, 10 complete control
[9] = Postemergence, Rate 125 g/ha, scale of 0 to 10 where 0 is no effect and 10 is complete control
[10] = Preemergence, Rate 500 g/ha, scale 0 to 10 (0 no effect, 10 complete control)
[11] = Rate 62 g/ha, Postemergence, scale of 0 to 10 where 0 is no effect and 10 is complete control
[12] = Rate 250 g/ha, Postemergence, scale 0 to 10, 0 is no effect, 10 is complete control

Q: What does the source list for `Cc1nn(C)c(C)c1-n1c(=O)on(C(=O)N(c2ccc(F)cc2F)C(C)C)c1=O` [Compound 76]?
A: Cocklebur plant response rating (cocklebur; [1]): 0; Cocklebur plant response rating (cocklebur; [2]): 3; Cocklebur plant response rating (cocklebur; [3]): 0; Plant response rating, Cocklebur (cocklebur; [4]): 0; Plant response rating, Cocklebur (cocklebur; [5]): 0; Cocklebur plant response rating (cocklebur; [6]): 0; Cocklebur plant response rating (cocklebur; [7]): 0; Cocklebur plant response rating (cocklebur; [8]): 4; Morningglory plant response rating (morningglory; [1]): 0; Morningglory plant response rating (morningglory; [2]): 4; Morningglory plant response rating (morningglory; [3]): 0; Plant response rating, Morningglory (morningglory; [4]): 0; Plant response rating, Morningglory (morningglory; [5]): 0; Morningglory plant response rating (morningglory; [6]): 0; Morningglory plant response rating (morningglory; [7]): 2; Morningglory plant response rating (morningglory; [8]): 7; Redroot pigweed plant response rating (pigweed; [1]): 0; Redroot pigweed plant response rating (pigweed; [2]): 0; Redroot pigweed plant response rating (pigweed; [3]): 0; Plant response rating, Redroot pigweed (pigweed; [4]): 0; Plant response rating, Redroot pigweed (pigweed; [5]): 3; Redroot pigweed plant response rating (pigweed; [6]): 8; Redroot pigweed plant response rating (pigweed; [7]): 0; Redroot pigweed plant response rating (pigweed; [8]): 4; Soybean plant response rating (soybean; [1]): 0; Soybean plant response rating (soybean; [2]): 2; Soybean plant response rating (soybean; [3]): 0; Plant response rating, Soybean (soybean; [4]): 0; Plant response rating, Soybean (soybean; [5]): 0; Soybean plant response rating (soybean; [6]): 0; Soybean plant response rating (soybean; [7]): 1; Soybean plant response rating (soybean; [8]): 2

Q: How did the “Cocklebur plant response rating” value (cocklebur; [1]) turn out when `CN(C(=O)n1oc(=O)n(Cc2cccs2)c1=O)c1ccccc1` [Compound 83] was run?
A: 0

Q: And the “Cocklebur plant response rating” value (cocklebur; [2])?
A: 1

Q: What about the “Cocklebur plant response rating” value (cocklebur; [3]) of the same molecule?
A: 0

Q: What about the “Plant response rating, Cocklebur” value (cocklebur; [4]) of the same molecule?
A: 0

Q: What about the “Plant response rating, Cocklebur” value (cocklebur; [5]) of the same molecule?
A: 0

Q: And the “Cocklebur plant response rating” value (cocklebur; [6])?
A: 0

Q: What about the “Cocklebur plant response rating” value (cocklebur; [7]) of the same molecule?
A: 0

Q: And the “Cocklebur plant response rating” value (cocklebur; [8])?
A: 1

Q: What about the “Morningglory plant response rating” value (morningglory; [1]) of the same molecule?
A: 0

Q: And the “Morningglory plant response rating” value (morningglory; [2])?
A: 0

Q: What about the “Morningglory plant response rating” value (morningglory; [3]) of the same molecule?
A: 0

Q: And the “Plant response rating, Morningglory” value (morningglory; [4])?
A: 0

Q: And the “Plant response rating, Morningglory” value (morningglory; [5])?
A: 0

Q: And the “Morningglory plant response rating” value (morningglory; [6])?
A: 0

Q: What about the “Morningglory plant response rating” value (morningglory; [7]) of the same molecule?
A: 0

Q: What about the “Morningglory plant response rating” value (morningglory; [8]) of the same molecule?
A: 0

Q: And the “Redroot pigweed plant response rating” value (pigweed; [1])?
A: 0

Q: And the “Redroot pigweed plant response rating” value (pigweed; [2])?
A: 0

Q: What about the “Redroot pigweed plant response rating” value (pigweed; [3]) of the same molecule?
A: 0

Q: What about the “Plant response rating, Redroot pigweed” value (pigweed; [4]) of the same molecule?
A: 0

Q: What about the “Plant response rating, Redroot pigweed” value (pigweed; [5]) of the same molecule?
A: 0

Q: What about the “Redroot pigweed plant response rating” value (pigweed; [6]) of the same molecule?
A: 0

Q: And the “Redroot pigweed plant response rating” value (pigweed; [7])?
A: 0

Q: And the “Redroot pigweed plant response rating” value (pigweed; [8])?
A: 0

Q: And the “Soybean plant response rating” value (soybean; [1])?
A: 0

Q: And the “Soybean plant response rating” value (soybean; [2])?
A: 0

Q: What about the “Soybean plant response rating” value (soybean; [3]) of the same molecule?
A: 0

Q: And the “Plant response rating, Soybean” value (soybean; [4])?
A: 0

Q: What about the “Plant response rating, Soybean” value (soybean; [5]) of the same molecule?
A: 0

Q: And the “Soybean plant response rating” value (soybean; [6])?
A: 0

Q: And the “Soybean plant response rating” value (soybean; [7])?
A: 0

Q: And the “Soybean plant response rating” value (soybean; [8])?
A: 0

Q: Which results are given for `Cc1ccccc1Cn1c(=O)on(C(=O)N(C)c2ccccc2)c1=O` [Compound 85]?
A: Cocklebur plant response rating (cocklebur; [1]): 0; Cocklebur plant response rating (cocklebur; [2]): 0; Cocklebur plant response rating (cocklebur; [3]): 0; Plant response rating, Cocklebur (cocklebur; [4]): 0; Plant response rating, Cocklebur (cocklebur; [5]): 0; Cocklebur plant response rating (cocklebur; [6]): 0; Cocklebur plant response rating (cocklebur; [7]): 0; Cocklebur plant response rating (cocklebur; [8]): 0; Morningglory plant response rating (morningglory; [1]): 0; Morningglory plant response rating (morningglory; [2]): 0; Morningglory plant response rating (morningglory; [3]): 0; Plant response rating, Morningglory (morningglory; [4]): 0; Plant response rating, Morningglory (morningglory; [5]): 0; Morningglory plant response rating (morningglory; [6]): 0; Morningglory plant response rating (morningglory; [7]): 0; Morningglory plant response rating (morningglory; [8]): 0; Redroot pigweed plant response rating (pigweed; [1]): 0; Redroot pigweed plant response rating (pigweed; [2]): 0; Redroot pigweed plant response rating (pigweed; [3]): 0; Plant response rating, Redroot pigweed (pigweed; [4]): 0; Plant response rating, Redroot pigweed (pigweed; [5]): 0; Redroot pigweed plant response rating (pigweed; [6]): 0; Redroot pigweed plant response rating (pigweed; [7]): 0; Redroot pigweed plant response rating (pigweed; [8]): 0; Soybean plant response rating (soybean; [1]): 0; Soybean plant response rating (soybean; [2]): 0; Soybean plant response rating (soybean; [3]): 0; Plant response rating, Soybean (soybean; [4]): 0; Plant response rating, Soybean (soybean; [5]): 0; Soybean plant response rating (soybean; [6]): 0; Soybean plant response rating (soybean; [7]): 0; Soybean plant response rating (soybean; [8]): 0

Q: For `CC(C)N(C(=O)n1oc(=O)n(Cc2ccccc2)c1=O)c1ccc(Cl)cc1` [Compound 106], which “Cocklebur plant response rating” value (cocklebur; [9]) is on record?
A: 2

Q: And the “Cocklebur plant response rating” value (cocklebur; [2])?
A: 2

Q: What about the “Cocklebur plant response rating” value (cocklebur; [3]) of the same molecule?
A: 0

Q: What about the “Plant response rating, Cocklebur” value (cocklebur; [4]) of the same molecule?
A: 0

Q: What about the “Plant response rating, Cocklebur” value (cocklebur; [5]) of the same molecule?
A: 0

Q: What about the “Cocklebur plant response rating” value (cocklebur; [10]) of the same molecule?
A: 0

Q: And the “Cocklebur plant response rating” value (cocklebur; [11])?
A: 0

Q: And the “Cocklebur plant response rating” value (cocklebur; [8])?
A: 4

Q: And the “Morningglory plant response rating” value (morningglory; [9])?
A: 7

Q: And the “Morningglory plant response rating” value (morningglory; [2])?
A: 8

Q: And the “Morningglory plant response rating” value (morningglory; [3])?
A: 0

Q: What about the “Plant response rating, Morningglory” value (morningglory; [4]) of the same molecule?
A: 0

Q: What about the “Plant response rating, Morningglory” value (morningglory; [5]) of the same molecule?
A: 0

Q: What about the “Morningglory plant response rating” value (morningglory; [10]) of the same molecule?
A: 0

Q: And the “Morningglory plant response rating” value (morningglory; [11])?
A: 6

Q: What about the “Morningglory plant response rating” value (morningglory; [8]) of the same molecule?
A: 10

Q: And the “Redroot pigweed plant response rating” value (pigweed; [9])?
A: 0

Q: What about the “Redroot pigweed plant response rating” value (pigweed; [3]) of the same molecule?
A: 0

Q: What about the “Plant response rating, Redroot pigweed” value (pigweed; [4]) of the same molecule?
A: 0

Q: What about the “Plant response rating, Redroot pigweed” value (pigweed; [5]) of the same molecule?
A: 0

Q: What about the “Redroot pigweed plant response rating” value (pigweed; [10]) of the same molecule?
A: 4

Q: What about the “Redroot pigweed plant response rating” value (pigweed; [11]) of the same molecule?
A: 0

Q: What about the “Plant response rating, Redroot pigweed” value (pigweed; [12]) of the same molecule?
A: 0

Q: What about the “Redroot pigweed plant response rating” value (pigweed; [8]) of the same molecule?
A: 6

Q: What about the “Soybean plant response rating” value (soybean; [9]) of the same molecule?
A: 0

Q: And the “Soybean plant response rating” value (soybean; [3])?
A: 0

Q: And the “Plant response rating, Soybean” value (soybean; [4])?
A: 0

Q: And the “Plant response rating, Soybean” value (soybean; [5])?
A: 0

Q: What about the “Soybean plant response rating” value (soybean; [10]) of the same molecule?
A: 0

Q: What about the “Soybean plant response rating” value (soybean; [11]) of the same molecule?
A: 0

Q: What about the “Plant response rating, Soybean” value (soybean; [12]) of the same molecule?
A: 1

Q: And the “Soybean plant response rating” value (soybean; [8])?
A: 1
